# In patent US20190225985A1, “Enhancing Bacillus Thuringiensis CRY Insecticidal Activity With a Chaperone” (Universidad Nacional Autónoma de México, priority 2016, published 2019):
# Where two headings read alike, the source gives them in different places.
# Assays:
# [1] = test system: Plutella xylostella larvae; type: in vivo; settings: for effect of Hsp90 on toxicity: protoxin at about 10% mortality, increasing Hsp90, FIG. 1
# Method: The hsp90 and hsp70 genes from the lepidopteran insect Plutella xylostella and the GroEL gene from Alcaligenes faecalis were cloned into an expression vector for production in E. coli cells. P. xylostella is a pest of cruciferous crops worldwide, is susceptible to Cry1A toxins and has evolved resistance to Cry1Ac and Cry1Ab in field conditions^18. To determine the effect of Hsp90, Hsp70 or GroEL on Cry1Ab and Cry1Ac toxicity, bioassays were performed against P. xylostella larvae using a protoxin concentration that would produce around 10% mortality in the presence of increasing amounts of Hsp90, Hsp70 or GroEL.
# Bioassays were performed with 24 third instar larvae of P. xylostella using 24 wells plates. Larval diet was surface contaminated with different concentrations of Cry1A protoxin plus Hsp90 or Hsp70 or protoxin alone without any chaperone. The samples containing protoxin and Hsp90 were previously incubated for 30 min at 37° C. in Hsp90 buffer (1 mM Mg, 1 mMATP, in PBS1X). Each experiment was performed in triplicate (72 larvae per treatment). Mortality was assessed after 7 days. The statistical calculations (mean and standard deviation) and graphics were performed using the Microsoft Excel Program. Negative control diet was surface contaminated with the highest Hsp90 concentration without Cry1A protoxin to test the possible toxic effect of the protein or the buffer itself.
# In the case where the LC50 was calculated, increasing concentrations of protoxin plus Hsp90 (in the protein relation indicated in the table) was used to surface contaminate diet in 24-well plates. These experiments were performed in triplicate. Mortality was assessed after 7 days and the effective dose was calculated using Probit analysis (Polo-PC LeOra Software).
# Hsp90 = experiment: ELISA binding assay of Hsp90 to Cry toxins; parameters: species or system Plutella xylostella; settings: for binding of Hsp90 to toxin (ELISA): coated protoxin, serial dilutions of Hsp90, FIG. 4A-E
# Method: (§1) The binding of Hsp90 or Hsp70 to Cry1Ab and Cry1AbMod protoxins was analyzed by ELISA binding assays. […] More specifically, 50 μl of 40 nM of each protoxin in binding buffer (100 mM carbonate pH 9.5) was used to coat ELISA 96 well plates. ELISA plates were incubated overnight at 4° C. After removing the protoxin solution, the plate was blocked with blocking-buffer (1% BSA in PBS 1X) for 1 hr at room temperature. […] The plate was washed three times with washing buffer (PBS 1X) and then 50 μl of a 1/10,000 dilution of anti-polyHistidine-Peroxidase conjugate (Sigma-Aldrich) was added to each well and incubated for 1 hr at 30° C. The reaction was developed with 50 μl of ortophenylenediamine in a substrate buffer (100 mM K3PO4; pH 5) in a final concentration of 1 mg/ml and […] of peroxide oxide. The reaction was stopped by adding 25 μl of HCl, 6N. The plates were read on microtiter plate reader at OD 490 nm.
# (§2) Data represent means of 8 wells and each experiment was repeated two times. The statistical calculations (mean and standard deviation) and graphics were performed using the Microsoft Excel Program.
# Hsp70 = experiment: ELISA binding assay of Hsp70 to Cry toxins; parameters: species or system Plutella xylostella; settings: coated protoxin, different concentrations of Hsp70, FIG. 5
# Method: as §1, §2
# [2] = test system: Plutella xylostella larvae; settings: soluble protoxin; taken from reference 16; cited from earlier work
# [3] = test system: M. sexta brush border membrane vesicles (BBMV); experiment: Oligomerization of Cry1Ab with brush border membrane vesicles in the presence of Hsp90, Western blot; type: biochemical
# Method: Oligomerization of Cry1Ab. Brush border membrane vesicles (BBMV) were prepared using M. sexta midgut tissues from third instar larvae by the magnesium precipitation method without protease inhibitors^21 and suspended in 50 mM Na2CO3, pH 9, and stored at −70° C. until used. The BBMV protein concentrations were determined with the Lowry DC protein assay (BioRad, Hercules, Calif.) using bovine serum albumin as a standard. Fifteen μg or 30 μg of Hsp90 were incubated with 1 μg Cry1Ab toxin or protoxin in the presence of Hsp90 buffer. Control samples contained Cry1Ab proteins without Hsp90. Cry1Ab oligomerization was analyzed after incubation of 1 μg of Cry1Ab toxin or protoxin with 10 μg of BBMV protein for 1 h at 37° C. in a total volume of […] alkaline buffer, pH 10.5. BBMV were recovered by a 30 min centrifugation at 60,000 rpm at 4° C. The pellet was washed once with 100 μl of alkaline buffer by centrifugation, and suspended in 60 μl of the same buffer. Laemmli sample buffer 4X was added and the sample was incubated three min at 50° C. Samples were separated in 8% SDS-PAGE, electro transferred to PVDF membrane and Cry1Ab proteins were detected by Westernblot as described above.
# [4] = excess of 500 μg per well of Hsp90
# Hsp90, sequence (as listed by the source): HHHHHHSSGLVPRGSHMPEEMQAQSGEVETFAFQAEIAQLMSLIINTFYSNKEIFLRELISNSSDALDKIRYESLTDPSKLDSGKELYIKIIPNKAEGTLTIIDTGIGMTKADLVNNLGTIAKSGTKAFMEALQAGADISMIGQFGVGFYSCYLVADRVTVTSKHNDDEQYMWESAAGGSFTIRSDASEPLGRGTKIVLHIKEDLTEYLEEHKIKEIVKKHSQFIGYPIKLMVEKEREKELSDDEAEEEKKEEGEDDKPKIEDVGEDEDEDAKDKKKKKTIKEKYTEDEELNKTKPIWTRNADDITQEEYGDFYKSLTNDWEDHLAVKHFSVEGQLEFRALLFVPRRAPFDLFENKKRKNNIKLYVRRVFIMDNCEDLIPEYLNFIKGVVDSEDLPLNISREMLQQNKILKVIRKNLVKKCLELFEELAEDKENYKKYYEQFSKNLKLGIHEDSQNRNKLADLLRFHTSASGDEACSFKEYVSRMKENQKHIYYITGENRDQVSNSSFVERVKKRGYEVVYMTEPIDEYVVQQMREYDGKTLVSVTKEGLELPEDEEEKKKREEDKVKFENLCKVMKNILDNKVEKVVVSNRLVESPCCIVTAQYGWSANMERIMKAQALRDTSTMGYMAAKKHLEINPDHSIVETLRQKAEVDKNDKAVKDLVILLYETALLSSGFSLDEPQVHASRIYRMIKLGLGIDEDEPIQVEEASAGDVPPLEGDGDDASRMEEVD
# Hsp70, sequence (as listed by the source): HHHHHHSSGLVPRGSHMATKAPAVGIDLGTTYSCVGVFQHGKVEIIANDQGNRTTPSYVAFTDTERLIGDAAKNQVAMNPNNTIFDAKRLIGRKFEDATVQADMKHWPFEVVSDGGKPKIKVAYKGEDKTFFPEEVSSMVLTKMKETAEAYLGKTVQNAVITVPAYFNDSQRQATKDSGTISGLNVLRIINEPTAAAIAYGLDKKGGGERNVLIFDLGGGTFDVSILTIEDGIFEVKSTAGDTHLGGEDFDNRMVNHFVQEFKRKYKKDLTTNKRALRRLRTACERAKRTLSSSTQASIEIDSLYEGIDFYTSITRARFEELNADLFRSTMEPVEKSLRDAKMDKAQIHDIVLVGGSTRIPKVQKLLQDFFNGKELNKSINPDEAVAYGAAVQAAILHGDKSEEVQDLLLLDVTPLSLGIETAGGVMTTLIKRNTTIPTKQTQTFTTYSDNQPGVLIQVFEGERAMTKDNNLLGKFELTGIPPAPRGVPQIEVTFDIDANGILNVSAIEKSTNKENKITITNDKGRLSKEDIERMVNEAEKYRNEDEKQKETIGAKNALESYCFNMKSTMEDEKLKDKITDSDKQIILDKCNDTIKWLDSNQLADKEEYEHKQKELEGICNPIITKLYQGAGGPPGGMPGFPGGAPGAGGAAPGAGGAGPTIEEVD
substance,measurement,setting,value
Cry1Ac,mortality,[1]; 100 ng per well of Hsp70,80%
same,mortality,[1]; 200 ng per well of Hsp90,80%
same,mortality,[1]; GroEL 100 ng per well,80%
same,mortality,[1]; excess of 200 μg per well of GroEL,100%
same,mortality,[1]; excess of 200 μg per well of Hsp70,100%
same,mortality,[1]; [4],100%
same,effect of GroEL on toxicity,"[1]; increasing GroEL, FIG. 3",enhanced in concentration dependent manner
same,effect of Hsp70 on toxicity,"[1]; increasing Hsp70, FIG. 2",enhanced in an Hsp70 concentration dependent manner
same,effect of Hsp90 on toxicity,[1],enhanced in an Hsp90 concentration dependent manner
same,binding of Hsp90 to Cry1Ac,"Hsp90; 100 nM Hsp90, absence of ATP (FIG. 4F lane 2)",significantly reduced
same,binding of Hsp90 to toxin (ELISA),Hsp90,bound
same,binding of Hsp70 to toxin (ELISA),Hsp70,bound
same,LC50,[2],0.71 ng/well
Cry1Ab,mortality,[1]; 200 ng per well of Hsp90,80%
same,mortality,[1]; [4],100%
same,effect of Hsp90 on toxicity,[1],enhanced in an Hsp90 concentration dependent manner
same,binding of Hsp90 to toxin (ELISA),Hsp90,bound
same,binding of Hsp70 to toxin (ELISA),Hsp70,bound
same,yield of the 250 kDa Cry1Ab oligomer,[3]; from Cry1Ab protoxin,significantly enhanced
same,yield of the 250 kDa Cry1Ab oligomer,[3]; from Cry1Ab toxin,significantly enhanced
same,LC50,[2],4.69 ng/well
